According to US6399570B1, “Antimicrobial/endotoxin neutralizing polypeptide” (priority 1999, dated 2002):
Where a SMILES comes first, the peptide text is derived from it.

How the values were obtained:
E. coli 0111 [1] = assay: Dose response of E. coli 0111 cells in the presence of LF polypeptides; assay type: cell-based; settings: E. coli 0111, 5 hours, OD 600 nm
Protocol: To compare the activity of the above described 33-mer which contains both basic clusters, and the above described 27-mer, which contains only one basic cluster, E. coli cultures were grown for 5 hours in the presence of varying doses of the two polypeptides.
Dose response of E. coli 0111 cells in the presence of LF polypeptides. E. coli were cultured as described above, for 5 hr in the presence of varying concentrations of polypeptide 33-mer or the related 27-mer. Inhibition of culture growth was determined spectrophotometrically as described earlier.

E. coli 0111 [2] = assay: Potentiation of Rifampicin by LF polypeptides; settings: 5 μM polypeptide + 0.9 μg/ml rifampicin, 6 hr
Protocol: E. coli cultures were exposed to sub-optimal doses of Rifampicin in the presence or absence of sub-optimal doses of the indicated polypeptides (FIG. 5), and were incubated for 6 hours, at which point CFU were determined.
E. coli 0111 were grown overnight as described above. Overnight cultures were then diluted 1:16,000 in 1% BP/PBS containing 0.9 μg/ml Rifampicin (Sigma-Aldrich Fine chemicals) and 5 μM LF polypeptides as indicated. Control cultures were those not exposed to any polypeptide. The diluted cultures were then incubated at 37° C. for 6 hr with aeration by shaking. The number of viable bacteria were then determined by dilution plating samples from each group and subsequently counting colony forming units (CFU). All values represent the average of duplicate independent experiments.

RAW264.7 cells = assay: Cytotoxicity of LF-33 to RAW264.7 cells (MTT); assay type: cell-based, murine; settings: 10 μM, highest concentration used
Lipid A = assay: Limulus ELISA, ENC50 against Lipid A; assay type: biochemical, E. coli K12; settings: endotoxin 200 EU/ml; mean +/− SD
Protocol: (§1) The peptide-mediated inhibition of endotoxin-induced Limulus amebocyte lysate (LAL) coagulation was measured with a sensitive LAL assay (Zhang et al., J. Clin. Microbiol. 32: 416-422 (1994)). Limulus ELISA is an endotoxin assay based on activation of the LAL coagulation by endotoxin and detection of the generated peptide-C immunoreactivity with an ELISA using a monoclonal antibody to the polypeptide. Endotoxin was defined to be neutralized when it lost its ability to activate the LAL enzymes. The 50% endotoxin-neutralizing concentration (ENC50) reflects the potency of an anti-endotoxin agent; a low ENC50 indicates high potency. Table 2 lists the determined ENC50 value of each anti-endotoxin agent against lipid A and four different types of LPS. The potency of each anti-endotoxin agent varied depending on the type of endotoxin. […] The only difference between the sequence of LF-33 and LF-27 is that LF-27 lacks the first six residues (GRRRRS) at the N-terminus of LF-33. Remarkably, this deletion led to dramatic loss of the endotoxin-neutralizing capacity of the polypeptide in this assay. Binding of serum proteins to endotoxin neutralizes the endotoxin activity in this assay by preventing endotoxin from activating LAL (Emancipator et al., Infect. Immun. 60: 596-601 (1992)).
(§2) LPS. […] LPS (purity >99%) from Neisseria meningitidis was prepared from the group B strain #6275 and its potency was 25 EU/ng. […] The potency of the above endotoxin was determined with the Limulus enzyme-linked immunosorbent assay (ELISA, 43) in comparison with US Pharmacopeia reference standard endotoxin EC-5.
(§3) Briefly, 25 μl endotoxin solution (200 EU/ml) was mixed with an equal volume of test materials in a series of two-fold dilution in 0.15 M NaCl in a sterile 96-well tissue culture plate (Nunc A/S, Roskilde, Denmark), and incubated at 37° C. for 1 h in a dry-air incubator. […] The endotoxin activity was then quantified with the use of Limulus ELISA (Zhang et al., J. Clin. Microbiol. 32: 416-422 (1994)). […] The high sensitivity of the assay allowed for very low levels of the endotoxin activity to be detected. […]

RAW 264.7 cells = assay: Endotoxin-induced TNF-α secretion by RAW264.7 cells in culture medium containing 10% human serum; assay type: cell-based, murine; settings: polypeptide 2.5 μM, endotoxin 10 ng/ml
Protocol: To test the suppression of endotoxin-induced TNF-α secretion under more physiological conditions, LF-33 or polymyxin B was added to human serum (final concentration 10%) before the addition of endotoxin.
Endotoxin induced TNF-α secretion by RAW 264.7 cells. The murine macrophage cell line RAW 264.7 was obtained from the American Type Culture Collection (ATCC, Rockville, Md.) and maintained as described previously (Jeremy, B., Immunol. Today. 16: 417-419 (1995)). The concentration of endotoxin in all buffers and media was controlled to below 0.1 EU/ml. The following protocol was essentially described before and used here with minor modifications (Kelly et al., Infect. Immun. 59: 4491-6 (1991)). Each well of a 96-well tissue culture plate was seeded with 150 μl RAW 264.7 cells at 10^6 cells per ml DMEM (Life Technologies, Gaithersburg, Md.) supplemented with 10% heat-treated fetal bovine serum (Life Technologies), 25 mM HEPES (N-2-hydroxyethylpiperazine-N′-2-ethanesulfonic acid; pH 7.3), penicillin (60 U/ml) and streptomycin (60 μg/ml). After overnight incubation at 37° C. in a 6% CO2 incubator, the medium was aspirated and cells washed with 3-changes of endotoxin-free Hank's balanced salt solution (HBSS, Life Technologies) supplemented with 25 mM HEPES (pH 7.3). Control endotoxin (10 ng/ml) and test materials were prepared in HBSS-HEPES. After incubation in a 37° C. water bath for 1 h, 0.2 ml of these solutions was added in triplicate to each well and incubated at 37° C. for 6 h. The supernatants were then collected and stored at −70° C. before the measurement of […] activity. Controls included HBSS-HEPES and test materials in the absence of endotoxin. TNF-α activity of the medium and test materials was below […]. The human serum used in some experiments was a pool from normal donors.
Determination of TNF activity. TNF-α activity in the culture supernatant was determined based on its cytotoxicity for the mouse fibrosarcoma cell line WEHI 164 cells (ATCC). […] The antibody at 1:100 dilution completely eliminated the cytotoxicity in the culture supernatant of the RAW 264.7 cell stimulated by endotoxin and in the mouse sera collected 1 h after intraperitoneal injection of endotoxin.
Briefly, the 96-well tissue culture plates were seeded with 100 μl WEHI164 cells (5×10^4 cells) in RPMI-1640 medium (Life Technologies) containing 10% heat-treated fetal bovine serum, 25 mM HEPES (pH 7.3), penicillin (60 U/ml), streptomycin (60 μg/ml), and actinomycin D (4 μg/ml). […] Cell viability was then determined by the addition of 10 μl MTT (Thiazolyl blue, Sigma) stock solution (5 mg/ml in saline) to each well, and the incubation was allowed to continue for 6 h. […] The plate was read at 570 nm with a reference of 630 nm in a microplate reader. […]

S. abortus LPS = assay: Limulus ELISA, ENC50 against S. abortus LPS; assay type: biochemical, Salmonella abortus equi; settings: endotoxin 200 EU/ml; mean +/− SD
Protocol: as §1, §2, §3

P. aer. LPS = assay: Limulus ELISA, ENC50 against P. aer. LPS; assay type: biochemical, Pseudomonas aeruginosa; settings: endotoxin 200 EU/ml; mean +/− SD
Protocol: as §1, §2, §3

E. coli LPS = assay: Limulus ELISA, ENC50 against E. coli LPS; assay type: biochemical, Escherichia coli O113:H10; settings: endotoxin 200 EU/ml; mean +/− SD
Protocol: as §1, §2, §3

N. min. LPS = assay: Limulus ELISA, ENC50 against N. min. LPS; assay type: biochemical, Neisseria meningitidis; settings: endotoxin 200 EU/ml; mean +/− SD
Protocol: as §1, §2, §3

E. coli 0111 [3] = assay: Antimicrobial assay for LF polypeptides (CFU after 6 h); assay type: cell-based
Protocol: The antimicrobial activity of the catheptic polypeptide was measured against a clinical isolate, E. coli 0111. […] The 6 kDa catheptic fragment of LF is therefore at least as potent as twelve other natural antimicrobial polypeptides (H. G. Boman, J. Marsh, and J. A. Goode, Eds., Antimicrobial Peptides, (John Wiley & Sons Ltd., New York, N.Y., 1994)), and can function as a bactericidal agent. […] At 100 μM polypeptide, the number of viable bacteria was more than 1,000-fold greater in the cultures treated with the pepsinolytic versus cathepsinolytic fragment (FIG. 1). The basis for this difference in potency may be related to the additional, internal, pepsin cleavages which occur between the two disulfide bridges in the 6 kDa domain (Mann et al., J. Biol. Chem. 269: 23661-7 (1994); Bellamy et al., Biochim. Biophys. Acta 1121: 130-6 (1992)).
Antimicrobial assay for LF polypeptides. Cultures of E. coli 0111 (American Type Culture Collection #43887) were grown at 37° C. in 1% bactopeptone (BP) (Difco) in Dulbecco's phosphate buffered saline (dPBS) (Mediatech) with aeration by shaking (225 rpm). overnight cultures were diluted 8,000-fold in 2×concentrated BP/dPBS and mixed with an equal volume of sterile endotoxin-free distilled water containing serial dilutions of the polypeptide to be tested. The final assay volume was […] in a 12 mm×75 mm polypropylene tube (Falcon) with an ultimate dilution of the overnight cultures of 1:16,000 to yield an original inoculum of ˜1-2×10^4 CFU/ml. The final assay medium was physiological in ionic strength, 1% bactopeptone in 1×Dulbecco's phosphate buffered saline. Cultures were grown for 6 h at 37° C. with aeration as above and then cell density determined by measuring CFU/ml for each assay culture tube. Serial dilutions of each assay tube were plated on Luria Broth bactoagar and incubated for 24 h at 37° C. prior to counting colonies. All assays were done in triplicate and the standard deviation calculated for each concentration of inhibitor. Culture density at the beginning and end of the 6 h growth period was also determined from triplicate cultures lacking any polypeptide inhibitors. Untreated cultures typically grew to 1-2×10^8 CFU/ml in 6 h under these assay conditions.

E. coli 0111 [4] = settings: Bellamy et al. 1992; cited from earlier work

CSCC[C@H](NC(=O)[C@H](CC(N)=O)NC(=O)[C@H](CCCNC(=N)N)NC(=O)[C@H](CCC(N)=O)NC(=O)[C@H](Cc1c[nH]c2ccccc12)NC(=O)[C@H](CCC(N)=O)NC(=O)[C@H](Cc1ccccc1)NC(=O)[C@H](CS)NC(=O)[C@H](CCCCN)NC(=O)[C@@H](NC(=O)[C@H](C)NC(=O)[C@H](CCC(=O)O)NC(=O)[C@@H]1CCCN1C(=O)[C@H](CCC(N)=O)NC(=O)[C@H](CO)NC(=O)[C@@H](NC(=O)[C@H](C)NC(=O)[C@H](CS)NC(=O)[C@H](Cc1c[nH]c2ccccc12)NC(=O)[C@H](CCC(N)=O)NC(=O)[C@@H](NC(=O)[C@H](CO)NC(=O)[C@H](CCCNC(=N)N)NC(=O)[C@H](CCCNC(=N)N)NC(=O)[C@H](CCCNC(=N)N)NC(=O)[C@H](CCCNC(=N)N)NC(=O)CN)C(C)C)C(C)C)[C@@H](C)O)C(=O)N[C@@H](CCCNC(=N)N)C(=O)N[C@@H](CCCCN)C(=O)N[C@H](C(=O)N[C@@H](CCCNC(=N)N)C(=O)NCC(=O)N1CCC[C@H]1C(=O)O)C(C)C [LF-33] (H-GRRRRSVQWCAVSQPEATKCFQWQRNMRKVRGP-OH)
minimum inhibitory concentration (MIC) (E. coli 0111 [1]): 2 to 5 µM
viable bacteria relative to the rifampicin treatment alone (E. coli 0111 [2]): approximately 1%
% killed, average (M. smegmatis BH1; 50 μM LF-33, 16 hours, average of three experiments, listed as 33-mer): approximately 94%
anti-mycobacterial MIC (M. smegmatis BH1; M. smegmatis, 16 hours): not more than 10 μM
cytotoxicity to RAW264.7 cells (RAW264.7 cells): no cytotoxicity

Polymyxin B [reference compound]
IC50 (Lipid A): 0.19 µM
TNF-α secretion induced by P. aer. LPS (RAW 264.7 cells; control 4,428): 4,206 +/− 956 pg/ml
TNF-α secretion, P. aer. LPS mixing with serum first (RAW 264.7 cells; control 4,428): 4,206 +/− 956 pg/ml
TNF-α secretion induced by S. abortus LPS (RAW 264.7 cells; control 5,726): 4,090 +/− 806 pg/ml
TNF-α secretion induced by N. min. LPS (RAW 264.7 cells; control 8,817): 8,181 +/− 1,032 pg/ml
IC50 (S. abortus LPS): 18.2 µM
IC50 (P. aer. LPS): 3.91 µM
IC50 (E. coli LPS): 1.95 µM
IC50 (N. min. LPS): > 100 µM

pepsinolytic fragment: 6 kDa fragment released from LF by pepsin, amino acids 1-47, no amide bond between amino acid 11 and 12 [reference compound]
number of viable bacteria, pepsinolytic versus cathepsinolytic fragment (E. coli 0111 [3]; 100 μM polypeptide): more than 1,000 fold
minimum inhibitory concentration (MIC) (E. coli 0111 [3]; E. coli 0111, physiological ionic strength, 6 h, CFU): 11 to 33 µM
MIC previously reported (E. coli 0111 [4]): 18 µM
